# Data taken from patent US8491946B2, “Elastase inhibitor” (Shiseido Company, Ltd., priority 2010, dated 2013).
# “Also recorded” adds a separate entry of the source.
# Biological target: T1, Human leukocyte-derived elastase (Homo sapiens, UniProt P08246)
# T1 construct: purchased Elastin Product Co., Inc. CK828; host or cells: human leukocytes (leukocyte-derived)
# T1 sequence (P08246 30-247 limits assumed): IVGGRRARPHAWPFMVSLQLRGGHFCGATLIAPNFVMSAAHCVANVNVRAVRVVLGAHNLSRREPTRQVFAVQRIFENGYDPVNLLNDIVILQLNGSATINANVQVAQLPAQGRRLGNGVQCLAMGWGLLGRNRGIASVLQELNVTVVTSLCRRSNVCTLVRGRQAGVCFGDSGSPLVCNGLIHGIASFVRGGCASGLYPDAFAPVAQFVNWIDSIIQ
# Assay: elastase inhibition assay with fluorogenic substrate
# Assay type: biochemical
# Details: FIG. 1; drug alone or raspberry extract combined with hydroxyproline; 60 minutes at 37° C.
# Procedure: A solution containing 0.1 M HEPES and 0.5 M NaCl (pH 7.5) was used as a reaction buffer. Oxysuccinyl-(Ala)2-Pro-Val-MCA (Peptide Institute Cat. No. 3153-v) was used for the elastase substrate and dissolved in DMSO to a concentration of 80 mM followed by diluting to 0.16 mM with the reaction buffer. Human leukocyte-derived elastase (Elastin Product Co., Inc. Cat No. CK828) was diluted to 5 μg/mL with the reaction buffer.
# 25 μL aliquots of the 0.16 mM elastase substrate were dispensed into the wells of a 96-well plate followed by the addition of 50 μL of each drug. Next, 25 μL of ice-cooled 5 μg/mL elastase were added and incubated for 60 minutes at 37° C. followed by measuring fluorescence at 460 nm at an exciting wavelength of 369 nm. Raspberry extract BG manufactured by Maruzen Pharmaceuticals was used for the raspberry extract, L-hydroxyproline manufactured by Kyowa Hakko was used for the hydroxyproline, and Biodyne EMPP™ manufactured by Arch Personal Care Products L.P. was used for the yeast extract. Raspberry extract BG is a 1,3-butyleneglycol (50% aqueous solution) extract of raspberry fruit.
compound,measurement,value
"O=C(O)[C@@H]1C[C@@H](O)CN1 [hydroxyproline, L-hydroxyproline]",elastase inhibitory effects,elastase inhibitory effects were not demonstrated; also recorded: does not demonstrate elastase inhibitory effects alone
